≈ marks a conversion by molar mass, not a printed value.
Experiments:
[1] = Inhibition of Escherichia coli MurD ligase assessed as addition of D-[3H]glu to UDP-N-acetyl-muramoyl-L-alanine after 30 mins
Escherichia coli [2] = assay: Inhibition of Escherichia coli MurD ligase assessed as residual activity at 500 uM after 30 mins
Streptococcus pneumoniae [3] = assay: Antimicrobial activity against Streptococcus pneumoniae D39 by broth dilution method; format: functional
Streptococcus pneumoniae [4] = assay: Antimicrobial activity against Streptococcus pneumoniae ATCC 33400 by broth dilution method; format: functional
Streptococcus pneumoniae [5] = assay: Antimicrobial activity against Streptococcus pneumoniae ATCC 49619 by broth dilution method; format: functional
Enterococcus hirae = assay: Antimicrobial activity against Enterococcus hirae ATCC 9790 by broth dilution method; format: functional
Enterococcus faecium = assay: Antimicrobial activity against Enterococcus faecium ATCC 19434 by broth dilution method; format: functional
Enterococcus faecalis [6] = assay: Antimicrobial activity against Enterococcus faecalis ATCC 29212 by broth dilution method; format: functional
Enterococcus faecalis [7] = assay: Antimicrobial activity against Enterococcus faecalis ATCC 19433 by broth dilution method; format: functional
Bacillus subtilis = assay: Antimicrobial activity against Bacillus subtilis ATCC 6633 by broth dilution method; format: functional
Listeria monocytogenes = assay: Antimicrobial activity against Listeria monocytogenes ATCC 14780 by broth dilution method; format: functional
Listeria innocua = assay: Antimicrobial activity against Listeria innocua ATCC 33090 by broth dilution method; format: functional
Micrococcus luteus = assay: Antimicrobial activity against Micrococcus luteus ATCC 9314 by broth dilution method; format: functional
Klebsiella pneumoniae = assay: Antimicrobial activity against Klebsiella pneumoniae ATCC 13883 by broth dilution method; format: functional
Pseudomonas aeruginosa = assay: Antimicrobial activity against Pseudomonas aeruginosa ATCC 27853 by broth dilution method; format: functional
Citrobacter freundii = assay: Antimicrobial activity against Citrobacter freundii ATCC 8090 by broth dilution method; format: functional
Proteus mirabilis = assay: Antimicrobial activity against Proteus mirabilis ATCC 29936 by broth dilution method; format: functional
Escherichia coli [8] = assay: Antimicrobial activity against Escherichia coli ATCC 8739 by broth dilution method; format: functional
Escherichia coli [9] = assay: Inhibition of Escherichia coli MurD ligase assessed as residual activity at 1 mM after 30 mins
[10] = tested on: Staphylococcus epidermidis; assay: Antimicrobial activity against Staphylococcus epidermidis ATCC 12228 by broth dilution method; format: functional
Staphylococcus aureus [11] = assay: Antimicrobial activity against Staphylococcus aureus ATCC 25923 by broth dilution method; format: functional
Staphylococcus aureus [12] = assay: Antimicrobial activity against methicillin-resistant Staphylococcus aureus PL1 by broth dilution method; format: functional
Staphylococcus aureus [13] = assay: Antimicrobial activity against methicillin-resistant Staphylococcus aureus ATCC 43300 by broth dilution method; format: functional

Row | Compound | MIC (Streptococcus pneumoniae [3]) [µg/mL] | MIC (Streptococcus pneumoniae [4]) [µg/mL] | MIC (Streptococcus pneumoniae [5]) [µg/mL] | MIC (Enterococcus hirae) [µg/mL] | MIC (Enterococcus faecium) [µg/mL] | MIC (Enterococcus faecalis [6]) [µg/mL] | MIC (Enterococcus faecalis [7]) [µg/mL] | MIC (Bacillus subtilis) [µg/mL] | MIC (Listeria monocytogenes) [µg/mL] | MIC (Listeria innocua) [µg/mL] | MIC (Micrococcus luteus) [µg/mL] | MIC (Klebsiella pneumoniae) [µg/mL] | MIC (Pseudomonas aeruginosa) [µg/mL] | MIC (Citrobacter freundii) [µg/mL] | MIC (Proteus mirabilis) [µg/mL] | MIC (Escherichia coli [8]) [µg/mL] | MIC [10] [µg/mL] | MIC (Staphylococcus aureus [11]) [µg/mL] | MIC (Staphylococcus aureus [12]) [µg/mL] | MIC (Staphylococcus aureus [13]) [µg/mL] | other results
1 | CCCCOc1ccc2cc(S(=O)(=O)N[C@H](CCC(=O)O)C(=O)O)ccc2c1 |  |  |  |  |  |  |  |  |  |  |  |  |  |  |  |  |  |  |  |  | IC50 [1]: 280 µM; Ki [1]: 192 µM
2 | N#Cc1ccc(COc2ccc3cc(S(=O)(=O)N4CCC(C(=O)O)CC4)ccc3c2)c(F)c1 |  |  |  |  |  |  |  |  |  |  |  |  |  |  |  |  |  |  |  |  | Activity (Escherichia coli [2]): 94%
3 | N#Cc1ccc(COc2ccc3cc(S(=O)(=O)Nc4cc(C(=O)O)ccc4C(=O)O)ccc3c2)c(F)c1 | > 512 | > 512 | > 512 | > 512 | > 512 | > 512 | > 512 | > 512 | > 512 | > 512 | > 512 | > 512 | > 512 | > 512 | > 512 | > 512 | > 512 | > 512 | > 512 | > 512 | Activity (Escherichia coli [9]): 2%; IC50 [1]: 38 µM; Ki [1]: 26 µM
4 | CCCCOc1ccc2cc(S(=O)(=O)Nc3ccc(O)cc3C(=O)O)ccc2c1 | 64 (≈ 154 µM) | 32 (≈ 77 µM) | 64 (≈ 154 µM) | 256 (≈ 616 µM) | 256 (≈ 616 µM) | 256 (≈ 616 µM) | > 512 | > 512 | > 512 | > 512 | 256 (≈ 616 µM) | > 512 | > 512 | > 512 | > 512 | > 512 | > 512 | > 512 | > 512 | > 512 | Activity (Escherichia coli [2]): 76%
5 | CCCCOc1ccc2cc(S(=O)(=O)N[C@H]3CCCC[C@H]3C(=O)O)ccc2c1 | 64 (≈ 158 µM) | 64 (≈ 158 µM) | 64 (≈ 158 µM) | 64 (≈ 158 µM) | 256 (≈ 631 µM) | 256 (≈ 631 µM) | 512 (≈ 1260 µM) | 64 (≈ 158 µM) | 32 (≈ 78.9 µM) | 32 (≈ 78.9 µM) | > 512 | > 512 | > 512 | > 512 | > 512 | > 512 | 256 (≈ 631 µM) | 256 (≈ 631 µM) | 128 (≈ 316 µM) | 128 (≈ 316 µM) | Activity (Escherichia coli [9]): 93%
6 | N#Cc1ccc(COc2ccc3cc(S(=O)(=O)N[C@@H]4CCCC[C@H]4C(=O)O)ccc3c2)c(F)c1 | > 512 | > 512 | > 512 | > 512 | > 512 | > 512 | > 512 | > 512 | > 512 | > 512 | > 512 | > 512 | > 512 | > 512 | > 512 | > 512 | > 512 | > 512 | > 512 | > 512 | Activity (Escherichia coli [9]): 88%
7 | N#Cc1ccc(COc2ccc3cc(S(=O)(=O)NC4CCC(C(=O)O)CC4C(=O)O)ccc3c2)c(F)c1 (racemic) | > 512 | > 512 | > 512 | > 512 | > 512 | > 512 | > 512 | > 512 | > 512 | > 512 | > 512 | > 512 | > 512 | > 512 | > 512 | > 512 | > 512 | > 512 | > 512 | > 512 | Activity (Escherichia coli [9]): 14%
8 | CCCCOc1ccc2cc(S(=O)(=O)NC3CCC(C(=O)O)CC3C(=O)O)ccc2c1 (racemic) | 64 (≈ 142 µM) | 64 (≈ 142 µM) | 64 (≈ 142 µM) | 32 (≈ 71.2 µM) | 128 (≈ 285 µM) | 256 (≈ 569 µM) | 128 (≈ 285 µM) | 64 (≈ 142 µM) | 32 (≈ 71.2 µM) | 32 (≈ 71.2 µM) | > 512 | > 512 | > 512 | > 512 | > 512 | > 512 | 128 (≈ 285 µM) | 128 (≈ 285 µM) | 32 (≈ 71.2 µM) | 128 (≈ 285 µM) | Activity (Escherichia coli [9]): 89%
9 | CCCCOc1ccc2cc(S(=O)(=O)N[C@@H]3CCCC[C@H]3C(=O)O)ccc2c1 | 64 (≈ 158 µM) | 64 (≈ 158 µM) | 64 (≈ 158 µM) | 64 (≈ 158 µM) | 256 (≈ 631 µM) | 256 (≈ 631 µM) | 512 (≈ 1260 µM) | 64 (≈ 158 µM) | 32 (≈ 78.9 µM) | 32 (≈ 78.9 µM) | > 512 | > 512 | > 512 | > 512 | > 512 | > 512 | 256 (≈ 631 µM) | 256 (≈ 631 µM) | 256 (≈ 631 µM) | 256 (≈ 631 µM) | Activity (Escherichia coli [9]): 100%
